Reference: patent publication US9956181B2, “Composition of nanoformulated lycopene and method of using the composition” (priority 2015, dated 2018)

Assays:
Assay type in all cases: in vivo, Wistar rats
[1] = test system: ovariectomized (OVX) rats; experiment: OVX rat study: plasma GPx, SOD, CAT activities and urinary 8-OHdG
Description: Prior to surgery, rats were anesthetized with ketamine [(10% ketamine hydrochloride (80 mg/kg body weight), Cayman Chemical, Michigan, USA] and xylazine [(2% xylazine hydrochloride, 10 mg/kg body weight), Sigma-Aldrich Co., St. Louis, USA]. A single longitudinal skin incision was made on the dorsal midline at the level of the kidneys and both ovaries were ligated and removed to produce an ovariectomy in all OVX group animals. A SHAM-operated group, acting as a negative control for the effect of ovariectomy on bone parameters, underwent bilateral laparotomy, during which the ovaries were exposed but remained intact. […] The lycopene-supplemented groups were given lycopene (15, 30 and 45 mg/kg body weight per day) dissolved in corn oil by daily intra-gastric administration for the experimental period of 12 weeks. The SHAM, OVX and ALN control groups were given the same volume of corn oil without lycopene treatment. […] Prior to surgery, body weight and bone mineral density (BMD) were obtained for all animals. […] Alendronate is an anti-resorptive agent for the treatment of osteoporosis and was used as a positive therapy control. […] All OVX groups were pair-fed with the SHAM group throughout the study to avoid the possible effects of ovariectomy-induced over-consumption and subsequent excessive weight gain. Treatment started 1 week after the surgery: this period of rest allowed the rats to recover from the stress associated with the surgery. In addition, after surgery, rats were administered Diclofenac sodium injection (20 mg/Kg body weight) to reduce the pain associated with the surgery. Rats were weighed and examined daily. Blood and urine samples were collected at baseline, during, and at the end of treatment for measurement of various BTMs and other analytes. […] Blood and urine samples were collected from all experimental groups to measure biochemical analytes and BTMs at baseline and 4, 8, and 12 weeks of treatment.

[2] = test system: ovariectomized (OVX) rats; experiment: OVX rat study: dynamic bone histomorphometry of tibial metaphysis and diaphysis
Description: (§1) A total of 264 Wistar female rats, ˜6 months old, were supplied by the Animal House at King Fahd Medical Research Center (KFMRC), KAU. Rats were housed in individual cages and maintained at 22° C. with a 12-h light/dark cycle. During the study period, rats were given standard rodent chow diet ad libitum (commercial rat cubes containing approximately 18% protein, 3% fat, 77% carbohydrate, and 2% of an inorganic-salt mixture with a vitamin supplement by weight, supplied by Grain Silos and Flour Mills Organization, Jeddah, Saudi Arabia) and water until the onset of intervention. Prior to surgery, rats were anesthetized with ketamine [(10% ketamine hydrochloride (80 mg/kg body weight), Cayman Chemical, Michigan, USA] and xylazine [(2% xylazine hydrochloride, 10 mg/kg body weight), Sigma-Aldrich Co., St. Louis, USA]. A single longitudinal skin incision was made on the dorsal midline at the level of the kidneys and both ovaries were ligated and removed to produce an ovariectomy in all OVX group animals. A SHAM-operated group, acting as a negative control for the effect of ovariectomy on bone parameters, underwent bilateral laparotomy, during which the ovaries were exposed but remained intact. […] The lycopene-supplemented groups were given lycopene (15, 30 and 45 mg/kg body weight per day) dissolved in corn oil by daily intra-gastric administration for the experimental period of 12 weeks. The SHAM, OVX and ALN control groups were given the same volume of corn oil without lycopene treatment. […] A 12-week randomized placebo-controlled study in order to examine the protective effects of lycopene supplementation on bone mass and fragility in OVX rats was concluded. Prior to surgery, body weight and bone mineral density (BMD) were obtained for all animals. Rats were randomized using a computer-generated randomization code into one of six groups: (1) sham-operated (SHAM; n=44); (2) ovariectomized control (OVX; n=44); (3) OVX lycopene-supplemented (15 mg/kg body weight per day) (n=44); (4) OVX lycopene-supplemented (30 mg/kg body weight per day) (n=44); (5) OVX lycopene-supplemented (45 mg/kg body weight per day) (n=44) and (6) OVX alendronate-treated (ALN) [2.0 μg/kg body weight per day subcutaneously (sc)] (n=44). Alendronate is an anti-resorptive agent for the treatment of osteoporosis and was used as a positive therapy control. […] All OVX groups were pair-fed with the SHAM group throughout the study to avoid the possible effects of ovariectomy-induced over-consumption and subsequent excessive weight gain. Treatment started 1 week after the surgery: this period of rest allowed the rats to recover from the stress associated with the surgery. In addition, after surgery, rats were administered Diclofenac sodium injection (20 mg/Kg body weight) to reduce the pain associated with the surgery. Rats were weighed and examined daily. Blood and urine samples were collected at baseline, during, and at the end of treatment for measurement of various BTMs and other analytes. In vivo dual energy x-ray absorptiometry (DXA) measurements were made for the bone mineral content (BMC) and BMD of the whole body, lumbar spine (L1-L4), and the right humerus, together with body composition at 12 weeks of treatment. One day following the post-test DXA assessments (at 12 weeks, 16 rats in each group), animals were euthanized by decapitation and right and left femurs were extracted for further biomechanical and histomorphometric analyses. Blood and urine samples were collected from all experimental groups to measure biochemical analytes and BTMs at baseline and 4, 8, and 12 weeks of treatment. Peripheral Quantitative CT (pQCT) scans were made of the proximal tibia metaphysis and the diaphysis. In vivo micro-computed tomographic (μCT) scans of the proximal tibia were obtained during the treatment period to monitor changes in bone mass and microarchitecture. […]

[3] = test system: ovariectomized (OVX) rats; experiment: OVX rat study: biochemical bone turnover markers
Description: as §1, with “In addition, after surgery, rats were administered Diclofenac sodium injection (20 mg/Kg body weight) to reduce the pain associated with the surgery. Rats were weighed and examined daily. Blood and urine samples were collected at baseline, during, and at the end of treatment for measurement of various BTMs and other analytes. In vivo dual energy x-ray absorptiometry (DXA) measurements were made for the bone mineral content (BMC) and BMD of the whole body, lumbar spine (L1-L4), and the right humerus, together with body composition at 12 weeks of treatment. One day following the post-test DXA assessments (at 12 weeks, 16 rats in each group), animals were euthanized by decapitation and right and left femurs were extracted for further biomechanical and histomorphometric analyses. Blood and urine samples were collected from all experimental groups to measure biochemical analytes and BTMs at baseline and 4, 8, and 12 weeks of treatment.” left out, “diaphysis.” for “diaphysis. In vivo micro-computed tomographic (μCT) scans of the proximal tibia were obtained during the treatment period to monitor changes in bone mass and microarchitecture.”

[4] = test system: ovariectomized (OVX) rats; experiment: OVX rat study: serum minerals, enzymes and hormones
Description: as §1, with “In addition, after surgery, rats were administered Diclofenac sodium injection (20 mg/Kg body weight) to reduce the pain associated with the surgery. Rats were weighed and examined daily. Blood and urine samples were collected at baseline, during, and at the end of treatment for measurement of various BTMs and other analytes. In vivo dual energy x-ray absorptiometry (DXA) measurements were made for the bone mineral content (BMC) and BMD of the whole body, lumbar spine (L1-L4), and the right humerus, together with body composition at 12 weeks of treatment. One day following the post-test DXA assessments (at 12 weeks, 16 rats in each group), animals were euthanized by decapitation and right and left femurs were extracted for further biomechanical and histomorphometric analyses. Blood and urine samples were collected from all experimental groups to measure biochemical analytes and BTMs at baseline and 4, 8, and 12 weeks of treatment.” left out, “diaphysis.” for “diaphysis. In vivo micro-computed tomographic (μCT) scans of the proximal tibia were obtained during the treatment period to monitor changes in bone mass and microarchitecture.”

[5] = test system: ovariectomized (OVX) rats; experiment: OVX rat study: ex vivo μCT analysis of tibial metaphysis and femur diaphysis
Description: as §1

[6] = test system: ovariectomized (OVX) rats; experiment: OVX rat study: body weight, uterine weight, body composition by DXA, organ findings; settings: 12 weeks; for decrease in fat mass (body composition by DXA): higher dosages of lycopene
Description: as §1

[7] = OVX rat study: serum and liver lycopene by HPLC
Description: A total of 264 Wistar female rats, ˜6 months old, were supplied by the Animal House at King Fahd Medical Research Center (KFMRC), KAU. Rats were housed in individual cages and maintained at 22° C. with a 12-h light/dark cycle. During the study period, rats were given standard rodent chow diet ad libitum (commercial rat cubes containing approximately 18% protein, 3% fat, 77% carbohydrate, and 2% of an inorganic-salt mixture with a vitamin supplement by weight, supplied by Grain Silos and Flour Mills Organization, Jeddah, Saudi Arabia) and water until the onset of intervention. Prior to surgery, rats were anesthetized with ketamine [(10% ketamine hydrochloride (80 mg/kg body weight), Cayman Chemical, Michigan, USA] and xylazine [(2% xylazine hydrochloride, 10 mg/kg body weight), Sigma-Aldrich Co., St. Louis, USA]. A single longitudinal skin incision was made on the dorsal midline at the level of the kidneys and both ovaries were ligated and removed to produce an ovariectomy in all OVX group animals. A SHAM-operated group, acting as a negative control for the effect of ovariectomy on bone parameters, underwent bilateral laparotomy, during which the ovaries were exposed but remained intact. […] The lycopene-supplemented groups were given lycopene (15, 30 and 45 mg/kg body weight per day) dissolved in corn oil by daily intra-gastric administration for the experimental period of 12 weeks. The SHAM, OVX and ALN control groups were given the same volume of corn oil without lycopene treatment. […] A 12-week randomized placebo-controlled study in order to examine the protective effects of lycopene supplementation on bone mass and fragility in OVX rats was concluded. Prior to surgery, body weight and bone mineral density (BMD) were obtained for all animals. […] Peripheral Quantitative CT (pQCT) scans were made of the proximal tibia metaphysis and the diaphysis. […]

[8] = lycopene 15-45 mg/kg/day, 12 weeks, range over doses
[9] = 12 weeks, lycopene, ALN 2.0 μg/kg/day, P<0.001

## CC(C)=CCC/C(C)=C/C=C/C(C)=C/C=C/C(C)=C/C=C/C=C(C)/C=C/C=C(C)/C=C/C=C(\C)CCC=C(C)C [lycopene]
[1]; after lycopene treatment
  plasma GPx, CAT and SOD activities: increased
[1]; lycopene 15-45 mg/kg/day, P<0.001
  increase in plasma GPx activity compared to the OVX control: 30.6-57.2%
[1]; lycopene, dose-dependent manner, P<0.001
  urinary 8-OHdG levels: significantly decreased
[2]; OVX rats, lycopene, P<0.001
  osteoclast surface (Oc.S/BS) and osteoclast number (N.Oc/BS): significant decreases
[2]; OVX rats, lycopene, tibial metaphysis
  bone formation parameters (Ob.S/BS, MS/BS, BFR/BS, BFR/BV): prevented OVX-induced increases
[2]; [8]
  increase in BV/TV, tibial metaphysis (histomorphometry), compared with OVX control: 27.1-92.2%
  increase in Tb.N, tibial metaphysis (histomorphometry), compared with OVX control: 9.2-72.9%
[2]; lycopene greater than 15 mg/kg body weight per day, tibial diaphysis
  OVX-related increases in endocortical bone turnover formation (Ec.L.Pm/Ec.Pm, Ec MAR, Ec.BFR/BS): completely prevented
[2]; lycopene, except at 45 mg/kg body weight per day
  bone dynamics on the periosteal surface: positively affected
[3]; lycopene 30 and 45 mg/kg per day, P<0.001
  s-CTX and u-DPD levels compared to OVX control: significantly decreased
[3]; lycopene 30 or 45 mg/kg per day, weeks 8 and 12, P<0.001
  s-OC and s-PINP levels compared with OVX control: significant decreases
[4]; OVX lycopene-treated groups, dose-dependent, P<0.001
  serum E2: significantly increased
[4]; OVX rats, lycopene treatment
  elevated serum FSH and LH levels: attenuated
[4]; OVX rats, lycopene 45 mg/kg/day, ALN 2.0 μg/kg/day sc, P<0.001
  serum PTH values versus other groups: significantly higher
[5]; [9]
  decrease in Tb.Sp, tibia metaphysis (μCT), compared with OVX group: 46.8%
  increase in BV/TV, tibia metaphysis (μCT), compared with OVX group: 123.9%
  increase in Tb.N, tibia metaphysis (μCT), compared with OVX group: 52.8%
[5]; 12 weeks, lycopene, P<0.001
  increase in Tb.Th, tibia metaphysis (μCT), compared with OVX group: 78.4%
[5]; OVX rats, 12 weeks
  relative bone volume (BV/TV) of the femur diaphysis (μCT): nor lycopene or ALN treatment had significant effects
[5]; lycopene 30 and 45 mg/kg/day, ALN, versus SHAM and OVX groups
  femoral cortical values for Ct.Th and Ct.Po (μCT): improved
[6]; OVX rats, first value (presumably 30 mg/kg/day)
  decrease in fat mass (body composition by DXA): 8.9%
[6]; OVX rats, second value (presumably 45 mg/kg/day)
  decrease in fat mass (body composition by DXA): 16.4%
[6]; OVX rats, lycopene 15, 30, 45 mg/kg/day oral
  final body weight, body weight gain, or food intake: did not significantly influence
[6]; OVX rats, lycopene 30 and 45 mg/kg body weight per day
  uterine weight compared to OVX alone: significantly increased
[6]; OVX rats, lycopene treatment
  OVX-induced body weight gain and fat accumulation: prevented
[6]; lycopene-treated OVX rats
  degeneration or hypertrophy of internal organs, including muscle and bone: No degeneration or hypertrophy
[7]; 30 and 45 mg/kg body weight per day groups
  Liver lycopene levels versus 15 mg/kg per day group: significantly higher
[7]; female, Wistar, rat, serum, 45 mg/kg/day, OVX rats, at 12 weeks, 45 mg/kg body weight per day oral, read-out: Serum lycopene levels
  concentration at 12 weeks: 71.5 ± 4.65 nM
[7]; rats treated with lycopene, dose-dependent fashion
  lycopene in serum and livers: detected
